Test results published in patent US9249139B2, “Indolizinone based derivatives as potential phosphodiesterase 3 (PDE3) inhibitors and a process for the preparation thereof” (COUNCIL OF SCIENTIFIC & INDUSTRIAL RESEARCH, priority 2013, dated 2016).

target: PDE3 enzyme (Homo sapiens (Human), UniProt Q14432); test: PDE3 inhibition assay, BIOMOL GREEN Quantizyme Assay System; type: biochemical; conditions: PDE3 enzyme from platelets isolated from human blood; cAMP substrate; 1 hour at 37° C.; read at 620 nm
Sequence (Q14432 whole entry): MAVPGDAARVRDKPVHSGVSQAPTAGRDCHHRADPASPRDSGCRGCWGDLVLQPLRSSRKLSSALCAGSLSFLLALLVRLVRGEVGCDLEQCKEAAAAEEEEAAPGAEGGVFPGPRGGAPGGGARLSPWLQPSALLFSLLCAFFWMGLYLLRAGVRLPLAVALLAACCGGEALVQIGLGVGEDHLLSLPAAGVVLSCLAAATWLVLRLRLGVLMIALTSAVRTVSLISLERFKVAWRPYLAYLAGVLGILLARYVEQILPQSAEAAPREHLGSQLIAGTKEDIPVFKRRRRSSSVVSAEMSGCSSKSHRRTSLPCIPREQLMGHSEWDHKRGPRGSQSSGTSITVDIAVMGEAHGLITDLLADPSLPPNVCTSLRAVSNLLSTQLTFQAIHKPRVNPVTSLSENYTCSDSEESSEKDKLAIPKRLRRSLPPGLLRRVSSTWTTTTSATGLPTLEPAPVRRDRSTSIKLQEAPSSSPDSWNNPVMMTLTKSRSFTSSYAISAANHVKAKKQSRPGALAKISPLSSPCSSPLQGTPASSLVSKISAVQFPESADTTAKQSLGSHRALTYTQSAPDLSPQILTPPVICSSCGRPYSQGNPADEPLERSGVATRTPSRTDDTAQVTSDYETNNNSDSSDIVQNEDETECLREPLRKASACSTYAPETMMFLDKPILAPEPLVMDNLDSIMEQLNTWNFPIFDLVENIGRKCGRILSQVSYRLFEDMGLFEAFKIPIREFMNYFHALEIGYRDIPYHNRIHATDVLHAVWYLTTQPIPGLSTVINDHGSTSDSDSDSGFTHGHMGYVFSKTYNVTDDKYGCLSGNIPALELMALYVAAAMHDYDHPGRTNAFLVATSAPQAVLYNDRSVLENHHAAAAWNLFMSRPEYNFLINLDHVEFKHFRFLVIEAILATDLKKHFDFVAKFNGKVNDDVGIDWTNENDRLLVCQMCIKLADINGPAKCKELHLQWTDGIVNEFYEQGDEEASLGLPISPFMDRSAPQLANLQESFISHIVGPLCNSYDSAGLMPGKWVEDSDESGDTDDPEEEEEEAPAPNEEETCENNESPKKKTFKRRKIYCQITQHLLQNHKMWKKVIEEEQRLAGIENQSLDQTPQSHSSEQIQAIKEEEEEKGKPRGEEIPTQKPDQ
Experimental: PDE3 inhibition assay was performed a BIOMOL GREEN™ Quantizyme Assay System (catalogue No. BML-AK800-0001). The Platelets isolated from human blood were used as a source of PDE3 enzyme. 10 mL blood collected in a vacutainer tube (containing K3 EDTA) and centrifuged at 190×g for 15 min at room temperature. Top layer (platelet rich plasma) collected, centrifuged at 2500g for 5 min at 22° C. (Room temp.) The pellet was washed with 2 ml of 50 mM tris buffer (pH-7.4) containing 1 mM MgCl2 and centrifuged at 2500 g for 5 min. Then 200 μl of assay buffer (from PDE kit, Enzo Life Sciences) was added to the pellet and sonicated at 30 s per ml. Pellet was freeze thawed for three times (−80° C.) in order to rupture the platelet membrane and release the PDE enzyme. Then the cell homogenate was centrifuged at 2500 rpm for 5 min. Supernatant was collected and used as source for PDE3 enzyme. In 96 well plate (Prod. No. BML-KI101), we added supernatant having PDE3 enzyme, PDE3 assay buffer, cAMP substrate, 5′nucleotidase and test or standard compound and incubated for 1 hour at 37° C. The reaction was arrested by the addition 100 μl BIOMOL GREEN reagent incubated in room temp for 20 min. The green color developed was measured at 620 nm
The in vitro Phosphodiestarase (PDE3) inhibitory activity of compounds 1a-p were measured using a BIOMOL GREEN™ Quantizyme Assay System (catalogue No. BML-AK800-0001). The basic principle for this assay is the cleavage of c-AMP or c-GMP into their respective nucleotide by a cyclic nucleotide phosphodiesterase. The nucleotide (AMP or GMP) released is further cleaved into the nucleoside and phosphate by the enzyme 5′-nucleotidase. The extent of phosphate released is directly proportional to the PDE activity. In this screening method, the released phosphate by the enzymatic cleavage is quantified using BIOMOL GREEN reagent in a modified malachite green assay. The resulting green colour with λmax at 620 nm is directly proportional to the released phosphate and then PDE activity.

IC50 [nM]	SMILES
435	CCOC(=O)c1cc(Cc2ccccc2)c(=O)n2c1CCC2 [Compound 1a, Ethyl 6-benzyl-5-oxo-1,2,3,5-tetrahydro-8-indolizinonecarboxylate]
13.5	CCOC(=O)c1cc(Cc2cccc(F)c2)c(=O)n2c1CCC2 [Compound 1c, Ethyl 6-(3-fluorobenzyl)-5-oxo-1,2,3,5-tetrahydro-8-indolizinonecarboxylate]
1600	CCOC(=O)c1cc(Cc2ccc(F)cc2)c(=O)n2c1CCC2 [Compound 1d, Ethyl 6-(4-fluorobenzyl)-5-oxo-1,2,3,5-tetrahydro-8-indolizinonecarboxylate]
129	CCOC(=O)c1cc(Cc2ccccc2Cl)c(=O)n2c1CCC2 [Compound 1e, Ethyl 6-(2-chlorobenzyl)-5-oxo-1,2,3,5-tetrahydro-8-indolizinonecarboxylate]
108	CCOC(=O)c1cc(Cc2ccc(Cl)cc2)c(=O)n2c1CCC2 [Compound 1g, Ethyl 6-(4-chlorobenzyl)-5-oxo-1,2,3,5-tetrahydro-8-indolizinonecarboxylate]
577	CCOC(=O)c1cc(Cc2ccc(Cl)cc2Cl)c(=O)n2c1CCC2 [Compound 1h, Ethyl 6-(2,4-dichlorobenzyl)-5-oxo-1,2,3,5-tetrahydro-8-indolizinonecarboxylate]
11.3	CCOC(=O)c1cc(Cc2cccc(Br)c2)c(=O)n2c1CCC2 [Compound 1j, Ethyl 6-(3-bromobenzyl)-5-oxo-1,2,3,5-tetrahydro-8-indolizinonecarboxylate]
67.3	CCOC(=O)c1cc(Cc2ccc(Br)cc2)c(=O)n2c1CCC2 [Compound 1k, Ethyl 6-(4-bromobenzyl)-5-oxo-1,2,3,5-tetrahydro-8-indolizinonecarboxylate]
